Laboratory results: publication PMC3406249 (Hepatology (Baltimore, Md.), 2012)
No end group written: not given here.

Legend:
HCVpp (H77) = conditions: 50% cell culture inhibitory concentration, HCVpp entry; mean ± SD
JFH-1 HCVcc = conditions: 12 h
[1] = MTT assay; estimated

Q: Which IC50 (HCVpp (H77)) does the source give for GAIVSTALPQWRIYSYAG [CL58.6] here?
A: 23.8 ± 2.1 µM

Q: With MANAGLQLLGFILAFLGW [CL58] as the sequence, how does the IC50 (JFH-1 HCVcc) read?
A: 2 µM

Q: And the “50% cytotoxic concentration relative to IC50” value [1]?
A: ~100 fold
